The record followed here is doi:10.1101/614586v1 (biorxiv, 2019).

Where only a bound is given, the exact number is not on record here.

The target in one assay is T1, S. cerevisiae Rad54 (Saccharomyces cerevisiae, UniProt P32863).
T1 sequence (P32863 1-898): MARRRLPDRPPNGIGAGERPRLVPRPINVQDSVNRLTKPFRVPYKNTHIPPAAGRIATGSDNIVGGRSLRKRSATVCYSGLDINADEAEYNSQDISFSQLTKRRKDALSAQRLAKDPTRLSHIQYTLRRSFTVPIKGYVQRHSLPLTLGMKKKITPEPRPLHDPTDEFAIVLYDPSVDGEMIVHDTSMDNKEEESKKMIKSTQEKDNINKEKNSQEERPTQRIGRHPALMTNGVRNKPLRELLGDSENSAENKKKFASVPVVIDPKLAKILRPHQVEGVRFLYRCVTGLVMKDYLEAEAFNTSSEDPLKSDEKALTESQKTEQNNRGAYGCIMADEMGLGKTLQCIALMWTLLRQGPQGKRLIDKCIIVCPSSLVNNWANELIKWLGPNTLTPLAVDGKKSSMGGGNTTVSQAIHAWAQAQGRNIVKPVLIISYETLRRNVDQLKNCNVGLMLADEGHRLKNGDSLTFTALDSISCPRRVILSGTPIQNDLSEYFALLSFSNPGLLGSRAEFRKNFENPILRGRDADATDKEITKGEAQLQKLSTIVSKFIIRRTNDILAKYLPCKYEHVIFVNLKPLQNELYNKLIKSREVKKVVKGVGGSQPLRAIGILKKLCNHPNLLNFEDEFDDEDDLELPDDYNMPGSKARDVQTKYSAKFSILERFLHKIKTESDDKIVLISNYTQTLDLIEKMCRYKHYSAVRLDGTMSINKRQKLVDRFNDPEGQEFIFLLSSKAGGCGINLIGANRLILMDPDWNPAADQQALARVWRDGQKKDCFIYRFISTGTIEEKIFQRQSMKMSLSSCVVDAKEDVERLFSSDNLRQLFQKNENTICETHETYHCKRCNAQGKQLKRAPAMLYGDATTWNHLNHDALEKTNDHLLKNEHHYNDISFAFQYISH
Briefly: malachite green phosphate ATPase assay. Format: biochemical.

For a further assay, the target named is T2, H. sapiens HLTF (Homo sapiens, UniProt Q14527).
T2 sequence (Q14527 1-1009): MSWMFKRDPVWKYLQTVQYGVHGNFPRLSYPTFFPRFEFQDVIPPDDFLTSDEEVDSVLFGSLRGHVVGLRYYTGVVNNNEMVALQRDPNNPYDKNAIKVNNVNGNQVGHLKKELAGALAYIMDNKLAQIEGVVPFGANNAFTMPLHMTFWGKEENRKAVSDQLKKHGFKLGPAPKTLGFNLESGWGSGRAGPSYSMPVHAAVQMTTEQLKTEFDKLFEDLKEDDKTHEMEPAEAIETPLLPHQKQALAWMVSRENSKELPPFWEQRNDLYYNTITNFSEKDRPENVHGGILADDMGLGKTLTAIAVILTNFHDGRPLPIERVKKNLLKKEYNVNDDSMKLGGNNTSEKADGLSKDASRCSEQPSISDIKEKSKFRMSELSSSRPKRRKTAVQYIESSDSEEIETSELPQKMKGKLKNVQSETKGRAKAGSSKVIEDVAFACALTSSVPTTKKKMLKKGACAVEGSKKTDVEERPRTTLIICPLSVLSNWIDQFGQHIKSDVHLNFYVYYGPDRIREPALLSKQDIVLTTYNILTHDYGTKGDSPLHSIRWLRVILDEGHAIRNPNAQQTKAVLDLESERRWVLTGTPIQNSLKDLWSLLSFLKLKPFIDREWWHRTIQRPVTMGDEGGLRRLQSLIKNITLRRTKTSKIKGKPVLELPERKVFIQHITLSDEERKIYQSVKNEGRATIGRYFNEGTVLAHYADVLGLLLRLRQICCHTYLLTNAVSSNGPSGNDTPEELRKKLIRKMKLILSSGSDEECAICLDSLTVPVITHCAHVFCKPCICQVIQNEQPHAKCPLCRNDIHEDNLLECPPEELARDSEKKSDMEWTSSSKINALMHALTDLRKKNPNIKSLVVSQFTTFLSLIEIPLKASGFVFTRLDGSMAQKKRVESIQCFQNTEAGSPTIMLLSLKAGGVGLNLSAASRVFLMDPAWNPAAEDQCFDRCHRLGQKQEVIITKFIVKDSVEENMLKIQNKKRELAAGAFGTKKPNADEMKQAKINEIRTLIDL
Briefly: malachite green phosphate ATPase assay. Format: biochemical.

In assay [1] the target is T3, human RAD54 (Homo sapiens, UniProt Q92698).
T3 sequence (Q92698 1-747): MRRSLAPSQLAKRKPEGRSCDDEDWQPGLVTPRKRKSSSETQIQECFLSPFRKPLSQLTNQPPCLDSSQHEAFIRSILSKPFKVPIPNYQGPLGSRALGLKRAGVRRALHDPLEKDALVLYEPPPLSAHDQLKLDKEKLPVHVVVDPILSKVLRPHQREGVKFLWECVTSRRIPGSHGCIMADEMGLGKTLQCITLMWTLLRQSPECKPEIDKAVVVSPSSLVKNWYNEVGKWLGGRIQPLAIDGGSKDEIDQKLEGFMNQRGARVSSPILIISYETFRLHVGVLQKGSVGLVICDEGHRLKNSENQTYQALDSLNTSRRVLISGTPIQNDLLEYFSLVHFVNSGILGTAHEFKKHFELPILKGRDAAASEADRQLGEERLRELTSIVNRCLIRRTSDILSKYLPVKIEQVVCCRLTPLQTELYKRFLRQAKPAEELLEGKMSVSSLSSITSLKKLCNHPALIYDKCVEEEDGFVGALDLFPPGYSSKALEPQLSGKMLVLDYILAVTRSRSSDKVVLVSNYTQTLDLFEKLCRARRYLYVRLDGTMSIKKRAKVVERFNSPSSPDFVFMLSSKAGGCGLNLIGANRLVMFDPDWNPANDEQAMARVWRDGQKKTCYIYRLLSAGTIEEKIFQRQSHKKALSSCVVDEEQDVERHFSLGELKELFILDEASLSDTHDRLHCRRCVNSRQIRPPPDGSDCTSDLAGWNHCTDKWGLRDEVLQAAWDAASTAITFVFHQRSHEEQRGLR
In words: malachite green phosphate ATPase assay. The format is biochemical.

A further assay has as its target H. sapiens VCP/p97 (Homo sapiens, UniProt P55072). In words: malachite green phosphate ATPase assay. Format: biochemical.
Assay [2] has as its target T3, human RAD54. Briefly: biochemical. Conditions: read-out: % inh.

Chain of H. sapiens VCP/p97 (P55072 2-806): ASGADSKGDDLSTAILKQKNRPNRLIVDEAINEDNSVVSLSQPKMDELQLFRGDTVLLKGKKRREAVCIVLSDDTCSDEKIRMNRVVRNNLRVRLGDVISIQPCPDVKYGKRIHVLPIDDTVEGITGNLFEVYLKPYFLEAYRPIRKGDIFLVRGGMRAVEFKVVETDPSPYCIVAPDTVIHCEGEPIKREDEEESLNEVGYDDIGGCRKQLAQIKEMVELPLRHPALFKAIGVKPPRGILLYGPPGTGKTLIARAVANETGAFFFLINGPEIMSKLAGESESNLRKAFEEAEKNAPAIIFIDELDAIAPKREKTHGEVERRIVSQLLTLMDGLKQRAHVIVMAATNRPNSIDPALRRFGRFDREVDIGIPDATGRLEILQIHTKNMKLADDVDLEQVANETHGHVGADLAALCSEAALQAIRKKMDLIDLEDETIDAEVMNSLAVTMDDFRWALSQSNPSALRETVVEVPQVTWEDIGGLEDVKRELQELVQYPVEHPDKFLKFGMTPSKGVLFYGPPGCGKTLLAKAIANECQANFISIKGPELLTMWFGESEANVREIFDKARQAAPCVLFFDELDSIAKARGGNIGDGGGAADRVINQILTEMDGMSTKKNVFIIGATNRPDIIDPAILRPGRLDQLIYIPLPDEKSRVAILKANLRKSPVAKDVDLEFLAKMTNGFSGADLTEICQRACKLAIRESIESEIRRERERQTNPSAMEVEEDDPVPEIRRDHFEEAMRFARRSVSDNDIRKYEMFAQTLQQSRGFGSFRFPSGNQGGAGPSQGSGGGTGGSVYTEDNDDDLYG

In the case of `CN(C)CCCNCC(O)Cn1c2ccc(Cl)cc2c2cc(Cl)ccc21` (centres unmarked) [54i-1], the half-maximal inhibitory concentration (IC50) against S. cerevisiae Rad54 is 3.8 ± 1.8 µM; against H. sapiens HLTF it was 377 ± 195 µM; against human RAD54 [1] it was 5 ± 1.05 µM; on H. sapiens VCP/p97, more than 500 µM. The inhibition at 10 µM at human RAD54 [2] came out at 68%.

The IC50 is the concentration that gives 50% inhibition. Higher therefore signals weaker potency in that assay.
